US12264156B2, “Compounds and pharmaceutical compositions thereof for the treatment of diseases” (GALAPAGOS NV, priority 2018, dated 2025)
pEC50, pIC50: −log10 of the molar value. Where two headings read alike, the source gives them in different places.

How the values were obtained:
SIK1 = target: T1, SIK1 (Homo sapiens, UniProt P57059); test: ADP-Glo kinase assay, SIK1; format: biochemical; settings: ADP-Glo SIK kinase assay
T1 construct: purchased Carna Biosciences 02-131
In short: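 Enzyme–substrate mix was started with ATP and incubated 120 min at RT. ADP formed was quantified by ADP-Glo: 40 min ATP depletion, then 30 min detection reagent converting ADP to ATP for luciferase luminescence, which rises with kinase activity. Controls: 1% DMSO and 10 μM staurosporine (final).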

SIK2 = target: T2, SIK2 (Homo sapiens, UniProt Q9H0K1); test: ADP-Glo kinase assay, SIK2; format: biochemical; settings: ADP-Glo SIK kinase assay
T2 construct: purchased ThermoFisher Scientific PV4792
T2 sequence (Q9H0K1 whole entry): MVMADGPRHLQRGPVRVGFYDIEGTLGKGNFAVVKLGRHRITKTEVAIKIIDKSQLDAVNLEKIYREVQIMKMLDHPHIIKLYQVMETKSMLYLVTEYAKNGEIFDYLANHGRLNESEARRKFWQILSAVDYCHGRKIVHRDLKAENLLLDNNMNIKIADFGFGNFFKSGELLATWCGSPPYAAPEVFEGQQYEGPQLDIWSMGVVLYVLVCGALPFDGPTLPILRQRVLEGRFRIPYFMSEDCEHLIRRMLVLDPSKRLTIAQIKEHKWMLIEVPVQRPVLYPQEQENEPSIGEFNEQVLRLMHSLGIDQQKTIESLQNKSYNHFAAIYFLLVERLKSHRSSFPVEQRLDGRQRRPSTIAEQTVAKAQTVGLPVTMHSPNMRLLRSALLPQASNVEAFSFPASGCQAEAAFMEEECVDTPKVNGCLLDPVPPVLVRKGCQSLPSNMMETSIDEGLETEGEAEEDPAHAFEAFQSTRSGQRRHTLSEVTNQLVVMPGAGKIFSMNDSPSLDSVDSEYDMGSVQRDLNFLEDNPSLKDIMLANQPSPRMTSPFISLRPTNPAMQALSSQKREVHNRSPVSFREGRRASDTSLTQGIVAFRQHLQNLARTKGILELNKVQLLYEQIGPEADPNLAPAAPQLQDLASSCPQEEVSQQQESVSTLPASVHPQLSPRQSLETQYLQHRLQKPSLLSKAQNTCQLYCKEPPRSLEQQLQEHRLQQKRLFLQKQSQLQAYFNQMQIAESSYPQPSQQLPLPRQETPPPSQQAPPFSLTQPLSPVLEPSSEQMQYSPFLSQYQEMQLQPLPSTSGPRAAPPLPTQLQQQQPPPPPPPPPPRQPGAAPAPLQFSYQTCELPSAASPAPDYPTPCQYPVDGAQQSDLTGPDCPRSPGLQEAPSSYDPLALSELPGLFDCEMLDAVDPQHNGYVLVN
In short: (§1)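 Kinase reactions (enzyme-substrate mix plus ATP) ran 120 min at room temperature for each of SIK3 and SIK2. Signal came from ADP-Glo: unconsumed ATP removed (40 min), ADP reconverted and detected by luciferase/luciferin (30 min), with luminescence tracking kinase activity. 10 μM staurosporine and 1% DMSO (final) served as controls.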

SIK3 = target: T3, SIK3 (Homo sapiens, UniProt Q9Y2K2); test: ADP-Glo kinase assay, SIK3; format: biochemical; settings: ADP-Glo SIK kinase assay
T3 construct: purchased SignalChem S12-11G-100
T3 sequence (Q9Y2K2 whole entry): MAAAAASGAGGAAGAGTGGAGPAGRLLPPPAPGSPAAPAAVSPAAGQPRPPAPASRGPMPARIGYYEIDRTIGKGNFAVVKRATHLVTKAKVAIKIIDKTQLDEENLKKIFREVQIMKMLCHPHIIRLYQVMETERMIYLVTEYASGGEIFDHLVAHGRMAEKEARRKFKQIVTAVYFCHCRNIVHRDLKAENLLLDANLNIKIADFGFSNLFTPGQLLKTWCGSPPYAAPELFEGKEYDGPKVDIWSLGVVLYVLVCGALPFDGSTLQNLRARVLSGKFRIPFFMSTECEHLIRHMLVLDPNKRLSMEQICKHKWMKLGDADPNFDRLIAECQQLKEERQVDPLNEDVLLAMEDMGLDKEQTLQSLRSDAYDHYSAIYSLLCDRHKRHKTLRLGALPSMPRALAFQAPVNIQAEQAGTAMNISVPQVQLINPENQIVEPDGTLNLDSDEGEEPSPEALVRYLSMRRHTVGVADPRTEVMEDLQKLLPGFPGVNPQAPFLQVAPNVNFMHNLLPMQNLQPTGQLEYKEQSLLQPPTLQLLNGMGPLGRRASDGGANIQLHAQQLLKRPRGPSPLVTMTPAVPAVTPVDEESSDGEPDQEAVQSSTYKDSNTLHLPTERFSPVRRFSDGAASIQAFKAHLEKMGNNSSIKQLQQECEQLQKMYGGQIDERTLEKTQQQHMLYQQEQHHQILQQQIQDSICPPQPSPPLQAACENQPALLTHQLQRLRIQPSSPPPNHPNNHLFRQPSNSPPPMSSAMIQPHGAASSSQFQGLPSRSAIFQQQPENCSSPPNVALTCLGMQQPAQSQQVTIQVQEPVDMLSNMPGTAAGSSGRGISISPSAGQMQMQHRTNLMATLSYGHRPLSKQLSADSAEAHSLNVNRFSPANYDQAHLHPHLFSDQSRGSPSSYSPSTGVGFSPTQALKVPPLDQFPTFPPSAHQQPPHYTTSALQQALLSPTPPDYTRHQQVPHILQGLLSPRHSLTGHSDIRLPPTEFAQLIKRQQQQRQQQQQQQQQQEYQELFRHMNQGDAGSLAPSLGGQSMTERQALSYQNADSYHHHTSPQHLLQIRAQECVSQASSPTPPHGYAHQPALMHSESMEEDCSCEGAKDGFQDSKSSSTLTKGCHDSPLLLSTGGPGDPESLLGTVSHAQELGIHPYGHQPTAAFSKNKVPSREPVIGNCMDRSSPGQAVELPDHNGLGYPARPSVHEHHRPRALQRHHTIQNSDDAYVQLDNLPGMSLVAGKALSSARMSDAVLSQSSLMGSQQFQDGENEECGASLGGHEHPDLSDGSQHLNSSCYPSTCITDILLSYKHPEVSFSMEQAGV
In short: as §1

[1] = system: LPS-induced TNFα in monocyte-derived macrophages (MdM); test: MdM assay: LPS-triggered TNFα (ELISA); format: cell-based, human; settings: Homo sapiens, Macrophage, 20 h; for pEC50: monocyte-derived macrophages, LPS 200 ng/mL, supernatant after 20 h, read-out: TNFα EC50
In short: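 Compound added 1 h before LPS (200 ng/mL final) to day-10 macrophages derived from magnetically isolated CD14+ human blood monocytes, DMSO held at 0.2%. TNFα secreted over 20 h of stimulation quantified by ELISA against a standard curve.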

T1 sequence (P57059 whole entry): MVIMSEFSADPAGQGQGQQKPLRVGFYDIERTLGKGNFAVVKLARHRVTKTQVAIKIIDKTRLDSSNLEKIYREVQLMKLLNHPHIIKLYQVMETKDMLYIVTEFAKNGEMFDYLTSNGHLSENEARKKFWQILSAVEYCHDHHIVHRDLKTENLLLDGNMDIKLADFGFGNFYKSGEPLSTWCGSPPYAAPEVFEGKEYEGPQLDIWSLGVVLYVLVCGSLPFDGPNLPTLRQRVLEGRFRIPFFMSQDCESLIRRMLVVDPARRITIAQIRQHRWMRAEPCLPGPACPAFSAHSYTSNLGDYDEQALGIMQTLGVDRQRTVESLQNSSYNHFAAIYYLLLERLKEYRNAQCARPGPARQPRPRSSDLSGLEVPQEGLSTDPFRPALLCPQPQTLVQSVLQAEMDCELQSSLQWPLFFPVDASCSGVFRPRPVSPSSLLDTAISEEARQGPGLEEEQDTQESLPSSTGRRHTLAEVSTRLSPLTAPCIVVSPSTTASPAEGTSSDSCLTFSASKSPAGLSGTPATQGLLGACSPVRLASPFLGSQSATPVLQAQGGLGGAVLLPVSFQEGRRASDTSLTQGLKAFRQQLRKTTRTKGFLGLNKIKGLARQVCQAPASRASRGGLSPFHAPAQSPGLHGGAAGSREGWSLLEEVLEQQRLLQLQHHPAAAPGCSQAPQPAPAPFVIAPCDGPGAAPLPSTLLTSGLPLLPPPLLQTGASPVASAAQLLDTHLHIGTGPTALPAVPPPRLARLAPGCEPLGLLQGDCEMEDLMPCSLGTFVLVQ

Row | SMILES | pIC50 (SIK1) | pIC50 (SIK2) | pIC50 (SIK3) | pEC50 [1] | EC50 ([1]; read-out: TNFα EC50 (nM)) [nM]
1 | COc1cc(-c2cnc3cc(OC[C@H]4CCCN4C)ccn23)cc2c1C(=O)N(CC(F)(F)F)CC2 [compound 124, 8-methoxy-6-[7-[[(2R)-1-methylpyrrolidin-2-yl]methoxy]imidazo[1,2-a]pyridin-3-yl]-2-(2,2,2-trifluoroethyl)-3,4-dihydroisoquinolin-1-one] | < 6.30 | 8.00 to 11.00 | 8.00 to 11.00 | 6.00 to 7.00 | 
2 | COc1cc(-c2cnc3cc(OCC4CCO4)ccn23)cc2c1C(=O)N(CC(F)(F)F)CC2 (stereo not shown) [compound 125, 8-methoxy-6-[7-(oxetan-2-ylmethoxy)imidazo[1,2-a]pyridin-3-yl]-2-(2,2,2-trifluoroethyl)-3,4-dihydroisoquinolin-1-one] | 6.30 to 7.00 | 8.00 to 11.00 | 8.00 to 11.00 | 6.00 to 7.00 | 
3 | COc1cc(-c2cnc3cc(OCc4cnco4)ccn23)cc2c1C(=O)N(CC(F)(F)F)CC2 [compound 126, 8-methoxy-6-[7-(oxazol-5-ylmethoxy)imidazo[1,2-a]pyridin-3-yl]-2-(2,2,2-trifluoroethyl)-3,4-dihydroisoquinolin-1-one] | 6.30 to 7.00 | 8.00 to 11.00 | 8.00 to 11.00 | 6.00 to 7.00 | 
4 | COc1cc(-c2cnc3cc(OCC4CN(C)CCO4)ccn23)cc2c1C(=O)N(CC(F)(F)F)CC2 (stereo not shown) [compound 127, 8-methoxy-6-[7-[(4-methylmorpholin-2-yl)methoxy]imidazo[1,2-a]pyridin-3-yl]-2-(2,2,2-trifluoroethyl)-3,4-dihydroisoquinolin-1-one] | 6.30 to 7.00 | 8.00 to 11.00 | 8.00 to 11.00 | 6.00 to 7.00 | 
5 | CCN(CC)CCOc1ccn2c(-c3cc4c(c(OC)c3)C(=O)N(CC(F)(F)F)CC4)cnc2c1 [compound 128, 6-[7-[2-(diethylamino)ethoxy]imidazo[1,2-a]pyridin-3-yl]-8-methoxy-2-(2,2,2-trifluoroethyl)-3,4-dihydroisoquinolin-1-one] | 6.30 to 7.00 | 8.00 to 11.00 | 8.00 to 11.00 | 6.00 to 7.00 | 
6 | CN(C)CCOc1ccn2c(-c3cc(OC(F)F)c(C(=O)NC4CC4)c(OC(F)F)c3)cnc2c1 [compound 156, N-cyclopropyl-2,6-bis(difluoromethoxy)-4-[7-[2-(dimethylamino)ethoxy]imidazo[1,2-a]pyridin-3-yl]benzamide] | 7.00 to 8.00 | 8.00 to 11.00 | 8.00 to 11.00 | 6.00 to 7.00 | 
7 | COc1cc(-c2cnc3cc(OCCN(C)C)ccn23)cc(OC(F)F)c1C(=O)NCC(F)(F)F [compound 166, 2-(difluoromethoxy)-4-[7-[2-(dimethylamino)ethoxy]imidazo[1,2-a]pyridin-3-yl]-6-methoxy-N-(2,2,2-trifluoroethyl)benzamide] | 6.30 to 7.00 | 8.00 to 11.00 | 8.00 to 11.00 | 6.00 to 7.00 | 
8 | CNc1cc(-c2cnc3cc(OCCN(C)C)ccn23)cc2c1C(=O)N(CC(F)(F)F)CC2 [compound 167, 6-[7-[2-(dimethylamino)ethoxy]imidazo[1,2-a]pyridin-3-yl]-8-(methylamino)-2-(2,2,2-trifluoroethyl)-3,4-dihydroisoquinolin-1-one] | < 6.30 | 8.00 to 11.00 | 7.00 to 8.00 | < 5.30 | 
9 | COc1cc(-c2cnc3cc(OC[C@H]4CN(C)CCO4)ccn23)cc2c1C(=O)N(CC(F)(F)F)CC2 [compound 190, 8-methoxy-6-[7-[[(2R)-4-methylmorpholin-2-yl]methoxy]imidazo[1,2-a]pyridin-3-yl]-2-(2,2,2-trifluoroethyl)-3,4-dihydro isoquinolin-1-one] | 6.30 to 7.00 | 8.00 to 11.00 | 8.00 to 11.00 | 6.00 to 7.00 | 
10 | COc1cc(-c2cnc3cc(OC[C@@H]4CN(C)CCO4)ccn23)cc2c1C(=O)N(CC(F)(F)F)CC2 [compound 191, 8-methoxy-6-[7-[[(2S)-4-methylmorpholin-2-yl]methoxy]imidazo [1,2-a]pyridin-3-yl]-2-(2,2,2-trifluoroethyl)-3,4-dihydroisoquinolin-1-one] | 6.30 to 7.00 | 8.00 to 11.00 | 8.00 to 11.00 | 6.00 to 7.00 | 
11 | COc1cc(-c2cnc3cc(OCCN4C5CCC4COC5)ccn23)cc(OC(F)F)c1C(=O)NC1CC1 [compound 193, N-cyclopropyl-2-(difluoromethoxy)-6-methoxy-4-[7-[2-(3-oxa-8-azabicyclo [3.2.1]octan-8-yl)ethoxy]imidazo[1,2-a]pyridin-3-yl]benzamide] | 7.00 to 8.00 | 8.00 to 11.00 | 8.00 to 11.00 |  | 100 to 1000
12 | COc1cc(-c2cnc3cc(OCCN4C[C@@H]5C[C@H]4CO5)ccn23)cc(OC(F)F)c1C(=O)NC1CC1 [compound 206, N-cyclopropyl-2-(difluoromethoxy)-6-methoxy-4-[7-[2-[(1S,4S)-2-oxa-5-azabicyclo[2.2.1]heptan-5-yl]ethoxy]imidazo[1,2-a]pyridin-3-yl]benzamide] | 7.00 to 8.00 | 8.00 to 11.00 | 8.00 to 11.00 | 6.00 to 7.00 | 
13 | COc1cc(-c2cnc3cc(OCCN4CCOCC4)ccn23)cc2c1C(=O)N(CC(F)F)CC2 [compound 218, 2-(2,2-difluoroethyl)-8-methoxy-6-[7-(2-morpholinoethoxy)imidazo [1,2-a]pyridin-3-yl]-3,4-dihydroisoquinolin-1-one] | 6.30 to 7.00 | 8.00 to 11.00 | 8.00 to 11.00 | 6.00 to 7.00 | 
14 | COc1cc(-c2cnc3cc(OC[C@H]4COCCO4)ccn23)cc2c1C(=O)N(CC(F)F)CC2 [compound 219, 2-(2,2-difluoroethyl)-6-[7-[[(2R)-1,4-dioxan-2-yl]methoxy]imidazo[1,2-a]pyridin-3-yl]-8-methoxy-3,4-dihydroisoquinolin-1-one] | 6.30 to 7.00 | 8.00 to 11.00 | 8.00 to 11.00 | 5.30 to 6.00 | 
15 | COc1cc(-c2cnc3cc(OCC4(C)CN(C)C4)ccn23)cc(OC(F)F)c1C(=O)NC1CC1 [compound 220, N-cyclopropyl-2-(difluoromethoxy)-4-[7-[(1,3-dimethylazetidin-3-yl)methoxy]imidazo[1,2-a]pyridin-3-yl]-6-methoxy-benzamide] | 7.00 to 8.00 | 8.00 to 11.00 | 8.00 to 11.00 | 6.00 to 7.00 | 
16 | COc1cc(-c2cnc3cc(OC[C@@H]4COCCO4)ccn23)cc2c1C(=O)N(CC(F)(F)F)CC2 [compound 225, 6-[7-[[(2S)-1,4-dioxan-2-yl]methoxy]imidazo[1,2-a]pyridin-3-yl]-8-methoxy-2-(2,2,2-trifluoroethyl)-3,4-dihydroisoquinolin-1-one] | 6.30 to 7.00 | 8.00 to 11.00 | 8.00 to 11.00 | 6.00 to 7.00 | 
17 | COc1cc(-c2cnc3cc(OCc4nncn4C)ccn23)cc(OC(F)F)c1C(=O)NC1CC1 [compound 227, N-cyclopropyl-2-(difluoromethoxy)-6-methoxy-4-[7-[(4-methyl-1,2,4-triazol-3-yl)methoxy]imidazo[1,2-a]pyridin-3-yl]benzamide] | 6.30 to 7.00 | 8.00 to 11.00 | 8.00 to 11.00 | < 5.30 | 
18 | COc1cc(-c2cnc3cc(OCCN4CCOC[C@@H]4C)ccn23)cc(OC(F)F)c1C(=O)NC1CC1 [compound 233, N-cyclopropyl-2-(difluoromethoxy)-6-methoxy-4-[7-[2-[(3S)-3-methylmorpholin-4-yl]ethoxy]imidazo[1,2-a]pyridin-3-yl]benzamide] | 7.00 to 8.00 | 8.00 to 11.00 | 8.00 to 11.00 | 6.00 to 7.00 | 
19 | COc1cc(-c2cnc3cc(OCCN4CCOC[C@H]4C)ccn23)cc(OC(F)F)c1C(=O)NC1CC1 [compound 234, N-cyclopropyl-2-(difluoromethoxy)-6-methoxy-4-[7-[2-[(3R)-3-methylmorpholin-4-yl]ethoxy]imidazo[1,2-a]pyridin-3-yl]benzamide] | 7.00 to 8.00 | 8.00 to 11.00 | 8.00 to 11.00 | 6.00 to 7.00 | 
20 | COc1cc(-c2cnc3cc(OC[C@H]4COCCO4)ccn23)cc2c1C(=O)NCC2 [compound 242, 6-[7-[[(2R)-1,4-dioxan-2-yl]methoxy]imidazo[1,2-a]pyridin-3-yl]-8-methoxy-3,4-dihydro-2H-isoquinolin-1-one] | 7.00 to 8.00 | 8.00 to 11.00 | 8.00 to 11.00 | 6.00 to 7.00 | 
21 | COc1cc(-c2cnc3cc(OCC4(F)CN(C(=O)OC(C)(C)C)C4)ccn23)cc2c1C(=O)N(CC(F)(F)F)CC2 [compound 248, tert-butyl 3-fluoro-3-[[3-[8-methoxy-1-oxo-2-(2,2,2-trifluoroethyl)-3,4-dihydroisoquinolin-6-yl]imidazo[1,2-a]pyridin-7-yl]oxymethyl]azetidine-1-carboxylate] | 6.30 to 7.00 | 8.00 to 11.00 | 8.00 to 11.00 | 6.00 to 7.00 | 
22 | COc1cc(-c2cnc3cc(OCC4(F)CN(C)C4)ccn23)cc2c1C(=O)N(CC(F)(F)F)CC2 [compound 252, 6-[7-[(3-fluoro-1-methyl-azetidin-3-yl)methoxy]imidazo[1,2-a]pyridin-3-yl]-8-methoxy-2-(2,2,2-trifluoroethyl)-3,4-dihydro isoquinolin-1-one] | 6.30 to 7.00 | 8.00 to 11.00 | 8.00 to 11.00 | 6.00 to 7.00 | 
